Laboratory results as given in US20100048606A1, “10-Substituted Cytisine Derivatives and Methods of Use Thereof” (Georgetown University Office of Technology Commercialization, priority 2006, published 2010).
Like-named read-outs stand apart in the source and are kept apart here.

Key:
α2β4 nAChR = biological target: T1, α2β4 nAChR (Rattus norvegicus, UniProt P12389+P12392); test: Competition binding with [3H]epibatidine, membrane homogenates of stably transfected cells; conditions: for potency estimated from few doses: read-out: Estimated Ki α2β4
T1 construct: expressed in transfected cells

[1] = biological target: nAChRs of rat forebrain tissue (Rattus norvegicus, UniProt P09483+P12390); format: binding; conditions: for Ki: mean of three to five independent measurements
α3β2 nAChR = biological target: T2, α3β2 nAChR (Rattus norvegicus, UniProt P04757+P12390); test: Competition binding with [3H]epibatidine, membrane homogenates of stably transfected cells; conditions: for potency estimated from few doses: read-out: Estimated Ki α3β2
T2 construct: expressed in transfected cells

α4β4 nAChR = biological target: T3, α4β4 nAChR (Rattus norvegicus, UniProt P09483+P12392); test: as above; conditions: for potency estimated from few doses: read-out: Estimated Ki α4β4
T3 construct: expressed in transfected cells

α2β2 nAChR = biological target: T4, α2β2 nAChR (Rattus norvegicus, UniProt P12389+P12390); test: as above; conditions: for potency estimated from few doses: read-out: Estimated Ki α2β2
T4 construct: expressed in transfected cells

α3β4 nAChR = biological target: T5, α3β4 nAChR (Rattus norvegicus, UniProt P04757+P12392); test: as above; conditions: for potency estimated from few doses: read-out: Estimated Ki α3β4
T5 construct: expressed in transfected cells

α4β2 nAChR [2] = biological target: T6, α4β2 nAChR (Rattus norvegicus, UniProt P09483+P12390); test: as above; conditions: for Affinity ratio (α3β4/α4β2): Ki α3β4 divided by Ki α4β2; for potency estimated from few doses: read-out: Estimated Ki α4β2
T6 construct: expressed in transfected cells

[3] = background statement; cited from earlier work
α4β2 nAChR's = biological target: T7, α4β2 nAChR's (Homo sapiens, UniProt P17787+P43681); test: 86Rb+ efflux assay, agonist activity; format: cell-based; conditions: for Agonist activity at α4β2 (86Rb+ efflux): tested at 0.1, 1, 10 and 100 μM
T7 construct: expressed in transfected cells

α3β4 nAChR subtype = biological target: T8, α3β4 nAChR subtype (Rattus norvegicus, UniProt P04757+P12392); test: Antagonist activity, block of nicotine stimulated responses; format: cell-based; conditions: for Inhibition of the function of the α3β4 nAChR subtype: at 100 μM; for Block of nicotine stimulated responses at α3β4: concentrations up to 10 μM
T8 construct: expressed in transfected cells; host or cells: KXα3β4R2 cells (named in the result head)
Experimental: (§1) Compounds 15 and 17a are antagonists of the α4β2 nAChR subtype. […] Compounds 15 and 17a were tested for their antagonist activities at the α4β2 and α3β4 receptors at concentrations from 0.1 μM to 100 μM. […] This is typical of most classical nicotinic ligands.^34

α4β2 nAChR subtype = biological target: T9, α4β2 nAChR subtype (Homo sapiens, UniProt P17787+P43681); test: as above; format: cell-based; conditions: for inhibition at 100 µM: read-out: Inhibition of the function of the α4β2 nAChR subtype; for Block of nicotine stimulated responses at α4β2: concentrations up to 10 μM
T9 construct: expressed in transfected cells
Experimental: as §1

[4] = biological target: rat α3β4 nAChRs (KXα3β4R2 cells) (Rattus norvegicus, UniProt P04757+P12392); test: cell-based; conditions: read-out: Relative Emax (% of nicotine Emax) α3β4 nAChR's
α4β2 nAChR [5] = biological target: T10, α4β2 nAChR (Homo sapiens, UniProt P17787+P43681); conditions: read-out: EC50 (partial agonist at α4β2 nAChR); reported in the literature; cited from earlier work
α4β2 nAChR [6] = biological target: T10, α4β2 nAChR; conditions: read-out: Ki (binding affinity); reported in the literature; cited from earlier work
α6β42 = test: Primary screening, single concentration competition binding assay; conditions: estimated from single concentration (10 μM) competition binding, read-out: Estimated Ki α6β42
[7] = estimated from single run concentration binding assay
[8] = mean of three to five independent measurements, [3H]epibatidine, read-out: Ki α2β4
[9] = mean of three to five independent measurements, [3H]epibatidine, read-out: Ki α3β2
[10] = mean of three to five independent measurements, [3H]epibatidine, read-out: Ki α4β4
[11] = mean of three to five independent measurements, [3H]epibatidine, read-out: Ki α2β2
[12] = mean of three to five independent measurements, [3H]epibatidine, read-out: Ki α3β4
[13] = mean of three to five independent measurements, [3H]epibatidine, read-out: Ki α4β2
[14] = primary screening, estimated from single concentration (10 μM) competition binding

Row | Molecule | Affinity ratio (α3β4/α4β2) (α4β2 nAChR [2]) | Ki (α2β4 nAChR; [8]) | Ki [1] | Ki (α3β2 nAChR; [9]) | Ki (α4β4 nAChR; [10]) | Ki (α2β2 nAChR; [11]) | Ki (α3β4 nAChR; [12]) | Ki (α4β2 nAChR [2]; [13]) | potency estimated from few doses (α6β42) | potency estimated from few doses (α2β4 nAChR; [14]) | potency estimated from few doses (α3β2 nAChR; [14]) | potency estimated from few doses (α4β4 nAChR; [14]) | potency estimated from few doses (α3β4 nAChR; [14]) | potency estimated from few doses (α4β2 nAChR [2]; [14]) | further results
1 | 10-Cyclohexyl(methoxymethyl)-1,2,3,4,5,6-hexahydro-1,5-methano-pyrido[1,2-a][1,5]diazocin-8-one [rac-25] | >862 | – | – | – | – | – | – | – | – | – | – | – | – | – | potency estimated from few doses (α2β4 nAChR; [7]): 0.78 µM; potency estimated from few doses ([1]; estimated from single run concentration binding assay, read-out: Estimated Ki Forebrain): 0.17 µM; potency estimated from few doses (α3β2 nAChR; [7]): 0.8 µM; potency estimated from few doses (α4β4 nAChR; [7]): 0.15 µM; potency estimated from few doses (α2β2 nAChR; [7]): < 0.017 µM; potency estimated from few doses (α3β4 nAChR; [7]): 25 µM; potency estimated from few doses (α4β2 nAChR [2]; [7]): < 0.029 µM
2 | Clc1ccc(C2CC3CCC2N3)cn1 (racemic) [(±)-Epibatidine] | – | – | – | – | – | – | – | – | – | – | – | – | – | – | Analgesic potency [3]: approximately 500 times that of morphine
3 | Cc1cc2n(c(=O)c1)CC1CNCC2C1 (racemic) [rac-15, 10-Methyl-1,2,3,4,5,6-hexahydro-1,5-methano-pyrido[1,2-a][1,5]diazocin-8-one] | 3526 | – | – | – | – | – | – | – | – | – | – | – | – | – | Ki (α2β4 nAChR): 0.18 µM; Ki (α3β2 nAChR): 0.54 µM; Ki (α4β4 nAChR): 0.038 µM; Agonist activity at α4β2 (86Rb+ efflux) (α4β2 nAChR's): did not show agonist activity; Ki (α2β2 nAChR): 0.0075 µM; Inhibition of the function of the α3β4 nAChR subtype (α3β4 nAChR subtype): only slightly inhibited; Block of nicotine stimulated responses at α3β4 (α3β4 nAChR subtype): did not significantly block nicotine stimulated responses; inhibition at 100 µM (α4β2 nAChR subtype): > 50%; Block of nicotine stimulated responses at α4β2 (α4β2 nAChR subtype): did not significantly block nicotine stimulated responses; Ki (α3β4 nAChR): 6.7 µM; Ki (α4β2 nAChR [2]): 0.0019 µM; Affinity ratio (α3β4/α4β2) (α4β2 nAChR [2]; listed as 15): > 3000
4 | O=c1cc(CO)cc2n1CC1CNCC2C1 (racemic) [rac-17a, 10-(Hydroxymethyl)-1,2,3,4,5,6-hexahydro-1,5-methano-pyrido[1,2-a][1,5]diazocin-8-one] | 909 | – | – | – | – | – | – | – | – | – | – | – | – | – | Ki (α2β4 nAChR): 0.3 µM; Ki (α3β2 nAChR): 0.467 µM; Ki (α4β4 nAChR): 0.068 µM; Agonist activity at α4β2 (86Rb+ efflux) (α4β2 nAChR's): did not show agonist activity; Ki (α2β2 nAChR): 0.032 µM; Inhibition of the function of the α3β4 nAChR subtype (α3β4 nAChR subtype): only slightly inhibited; Block of nicotine stimulated responses at α3β4 (α3β4 nAChR subtype): did not significantly block nicotine stimulated responses; inhibition at 100 µM (α4β2 nAChR subtype): > 50%; Block of nicotine stimulated responses at α4β2 (α4β2 nAChR subtype): did not significantly block nicotine stimulated responses; Ki (α3β4 nAChR): 10 µM; Ki (α4β2 nAChR [2]): 0.011 µM
5 | O=c1c(-c2ccc(F)cc2)ccc2n1CC1CNCC2C1 (single isomer, unassigned; (-)) [(−)-21a, 9-(4-Fluorophenyl)-1,2,3,4,5,6-hexahydro-1,5-methano-pyrido[1,2-a][1,5]diazocin-8-one] | 157 | 8.1 µM | 3.1 µM | 12 µM | 3.3 µM | 0.82 µM | 66 µM | 0.42 µM | – | – | – | – | – | – | –
6 | CCCCc1ccc(-c2ccc3n(c2=O)CC2CNCC3C2)cc1 (single isomer, unassigned; (-)) [(−)-21b, 9-(4-Butylphenyl)-1,2,3,4,5,6-hexahydro-1,5-methano-pyrido[1,2-a][1,5]diazocin-8-one] | 17 | 28 µM | 21 µM | 36 µM | 13 µM | 8 µM | 140 µM | 8.2 µM | – | – | – | – | – | – | –
7 | Cc1ccc(-c2ccc3n(c2=O)CC2CNCC3C2)s1 (single isomer, unassigned; (-)) [(−)-21c, 9-(5-Methyl-2-thienyl)-1,2,3,4,5,6-hexahydro-1,5-methano-pyrido[1,2-a][1,5]diazocin-8-one] | 59 | 1.7 µM | 1.2 µM | 6 µM | 0.59 µM | 0.5 µM | 23 µM | 0.39 µM | – | – | – | – | – | – | –
8 | COC(=O)[C@H]1C2CNCC(C2)c2cccc(=O)n21 (single isomer, unassigned; (-)) [(−)-22, 8-Oxo-1,3,4,5,6,8-hexahydro-2H-1,5-methano-pyrido[1,2-a][1,5]diazocine-6-carboxylic acid methyl ester] | 13 | 75 µM | 48 µM | 250 µM | 33 µM | 17 µM | 320 µM | 24 µM | – | – | – | – | – | – | –
9 | CCC(=O)[C@H]1C2CNCC(C2)c2cccc(=O)n21 (single isomer, unassigned; (-)) [(−)-23, 6-Propionyl-1,2,3,4,5,6-hexahydro-1,5-methano-pyrido[1,2-a][1,5]diazocin-8-one] | 18 | 50 µM | 23 µM | 300 µM | 20 µM | 14 µM | 280 µM | 16 µM | – | – | – | – | – | – | –
10 | CN1CCCC1c1cccnc1 (single isomer, unassigned; (-)) [(−)-Nicotine, reference compound] | – | – | – | – | – | – | – | – | – | – | – | – | – | – | Emax [4]: 100%; Emax (α4β2 nAChR's; read-out: Relative Emax (% of nicotine Emax) α4β2 nAChR's, 86Rb+ efflux, mean ± standard error of three experiments): 100%
11 | O=c1cccc2n1C[C@@H]1CNC[C@H]2C1 [(−)-Cytisine (4), (−)-Cytisine] | 144 | – | – | – | – | – | – | – | – | – | – | – | – | – | EC50 (α4β2 nAChR [5]): ~1 µM; Ki (α4β2 nAChR [6]): ~0.001 µM
12 | O=c1ccccn1CC1CCCNC1 (centres unmarked) [Compound 6a, 1-(Piperidin-3-ylmethyl)pyridin-2(1H)-one] | – | – | – | – | – | – | – | – | 253 µM | 159 µM | 18.7 µM | 5.55 µM | 535 µM | 1.78 µM | potency estimated from few doses (α2β2 nAChR; [14]): 4.63 µM
13 | CN1CCCC(Cn2ccccc2=O)C1 (centres unmarked) [Compound 6b, 1-[(1-Methylpiperidin-3-yl)methyl]pyridin-2(1H)-one] | – | – | – | – | – | – | – | – | 76 µM | 180 µM | 6 µM | 2.6 µM | 160 µM | 0.98 µM | potency estimated from few doses (α2β2 nAChR; [14]): 19 µM
14 | O=c1ccccn1CC1CCCN(Cc2ccccc2)C1 (centres unmarked) [Compound 6c, 1-[(1-Benzylpiperidin-3-yl)methyl]pyridin-2(1H)-one] | – | – | – | – | – | – | – | – | 54 µM | 91 µM | 4.3 µM | 1.4 µM | 83 µM | 0.54 µM | potency estimated from few doses (α2β2 nAChR; [14]): 100 µM
15 | O=c1ccccn1CC1CCNCC1 [Compound 7a, 1-(Piperidin-4-ylmethyl)pyridin-2(1H)-one] | – | – | – | – | – | – | – | – | 87 µM | 80 µM | 12 µM | 5.4 µM | 750 µM | 1.6 µM | –
16 | O=c1ccccn1CC1CCN(Cc2ccccc2)CC1 [Compound 7b, 1-[(1-Benzyl-piperidin-4-yl)methyl]pyridin-2(1H)-one] | – | – | – | – | – | – | – | – | 470 µM | 440 µM | 7.3 µM | 4.5 µM | 620 µM | 1.3 µM | potency estimated from few doses (α2β2 nAChR; [14]): 26 µM
